Data published in article PMC11279551, “Pharmacokinetics and Enterohepatic Circulation of 2-(Quinoline-8-carboxamido)benzoic Acid (2-QBA) in Mice” (Pharmaceutics, 2024).

Experiments:
[1] = Urinary and fecal excretion of 2-QBA and 2-QBA-Glu with vehicle or AC treatment (β-glucuronidase treatment); type: in vivo; conditions: mice; for urinary excretion rate: PO 2 mg/kg
Protocol: In total, […] were administered 2-QBA (1 mg/kg/3 mL) via the tail vein. Two hours after the 2-QBA dosing, AC (0.8 g/kg/5 mL in distilled water) or a vehicle (5 mL/kg distilled water) was administrated via oral gavage. Each group included ten mice who were randomly divided into two groups for sparse sampling. Blood collection was performed at 0.083, 0.5, 2, and 8 h from 5 mice and at 0.25, 1, 4, and 24 h from another 5 mice, as described previously. Four mice treated with either AC (0.8 g/kg) or the vehicle 2 h after the 2-QBA IV dosing (1 mg/kg) were returned to a metabolic cage to collect the urine and feces samples. The urine and feces samples were collected for 72 h.
Next, 2-QBA was administered PO (2 mg/kg/5 mL) with or without AC (0.8 g/kg in 3 mL of DW), which was administered via oral gavage 2 h after the 2-QBA dosing. Each group included eight mice who were randomly divided into two groups for sparse sampling. Blood collection was performed at 0.25, 0.75, 2, and 8 h from 4 mice and at 0.5, 1, 4, and 24 h from another 4 mice, as described previously. Four mice treated with either AC (0.8 g/kg) or vehicle 2 h after the 2-QBA PO dosing (2 mg/kg) were returned to a metabolic cage to collect the urine and feces samples. The urine and feces samples were collected for 72 h.
Aliquots of plasma samples (30 μL) were added to 120 μL of IS solution. The mixture was vigorously vortexed for 5 min and then centrifuged at 13,000× g for 5 min. The supernatant was transferred to autosampler vials. Subsequently, a 3 μL aliquot was injected into the LC-MS/MS system. Aliquots (30 μL) of urine and 10% feces homogenate samples were added to 60 μL of 150 mM sodium acetate buffer (pH 5.0) in the presence or absence of β-glucuronidase (900 unit) at 37 °C for 2 h. […]
Then, we quantified the 2-QBA and 2-QBA-Glu from the urine and fecal samples obtained from the mice after IV or PO administration of 2-QBA. In addition, the amount of 2-QBA-Glu was calculated by subtracting the control 2-QBA from the total 2-QBA with β-glucuronidase treatment. […]

[2] = Urinary and fecal excretion after IV or PO administration (metabolic cage); type: in vivo; conditions: mice, IV 1.0 mg/kg
Protocol: We also investigated the excretion profile of 2-QBA after IV and PO administration at doses of 1 mg/kg for IV and 2 mg/kg for PO. After IV or PO administration of 2-QBA, the mice were returned to a metabolic cage to collect the urine and feces samples. The urine and feces samples were collected during the periods of 0–24 h, 24–48 h, 48–72 h, and 72–96 h. The urine ball was washed using equal volumes of methanol and added to the urine samples. The fecal samples were homogenized with 9 volumes of water to yield 10% fecal homogenates. The aliquots (30 μL) of urine and 10% fecal homogenate samples were stored at −80 °C until the analysis of the 2-QBA. For the analysis of the 2-QBA, 120 μL of IS solution was added to the 30 μL aliquot of urine and 10% fecal homogenate samples. The mixture was vigorously vortexed for 5 min and then centrifuged at 13,000× g for 5 min. The supernatant was transferred to autosampler vials. Subsequently, a 3 μL aliquot was injected into the LC-MS/MS system.
WinNonlin 5.1 software (Pharsight Co., Mountain View, CA, USA) was used to calculate the pharmacokinetic parameters. AUClast and AUCinf indicate the areas under the plasma concentration curve from 0 h to the last sample and from 0 h to infinity, respectively; these were estimated using the linear trapezoidal method. T1/2 is the elimination half-life, which is estimated from the elimination coefficient (k) (i.e., 0.693/k), and MRT is the mean residence time. CL is the total clearance, which is calculated by dividing the dose by AUCinf. Vdss is the volume of the distribution at a steady state, calculated from MRTxCL. CLrenal and CLfeces are calculated by dividing the amount excreted in urine and feces by the AUCinf, respectively. CLmetabolism is calculated by subtracting CLrenal and CLfeces from CL. […] BA is calculated by dividing the dose-normalized AUCinf for PO administration (AUCinf/PO dose) by the dose-normalized AUCinf for IV administration (AUCinf/IV dose). All data are expressed as the mean ± standard deviation (SD).

Structure (SMILES): O=C(O)c1ccccc1NC(=O)c1cccc2cccnc12 [2-QBA, 2-(quinoline-8-carboxamido)benzoic acid]
- dose excreted ([1]; ICR, mouse, faeces, 1 mg/kg, IV injection of 2-QBA, read-out: fecal recovery rate): < 5%
- urinary excretion rate ([1]; with AC (0.8 g/kg)): 17.5 % of the administered PO dose
- urinary excretion rate ([1]; without AC): 27.7 % of the administered PO dose
- CL renal ([2]; male, ICR, mouse, urine): 5.47 ± 2.22 mL/min/kg
- Amount excreted in feces for 96 h ([2]; parent form): 9.30 ± 6.17 % of dose
- Amount excreted in urine for 96 h ([2]; parent form): 13.8 ± 4.24 % of dose
